{"source": "paper PMC9127186", "about": "“Molecular Basis Underlying Hepatobiliary and Renal Excretion of Phenolic Acids of Salvia miltiorrhiza Roots (Danshen)” (Frontiers in Pharmacology, 2022)", "origin": "cited, not measured here", "key": {"human OAT1": {"molecular_target": "T1, human OAT1 (Homo sapiens, UniProt Q4U2R8)", "T1 sequence (Q4U2R8 1-563)": "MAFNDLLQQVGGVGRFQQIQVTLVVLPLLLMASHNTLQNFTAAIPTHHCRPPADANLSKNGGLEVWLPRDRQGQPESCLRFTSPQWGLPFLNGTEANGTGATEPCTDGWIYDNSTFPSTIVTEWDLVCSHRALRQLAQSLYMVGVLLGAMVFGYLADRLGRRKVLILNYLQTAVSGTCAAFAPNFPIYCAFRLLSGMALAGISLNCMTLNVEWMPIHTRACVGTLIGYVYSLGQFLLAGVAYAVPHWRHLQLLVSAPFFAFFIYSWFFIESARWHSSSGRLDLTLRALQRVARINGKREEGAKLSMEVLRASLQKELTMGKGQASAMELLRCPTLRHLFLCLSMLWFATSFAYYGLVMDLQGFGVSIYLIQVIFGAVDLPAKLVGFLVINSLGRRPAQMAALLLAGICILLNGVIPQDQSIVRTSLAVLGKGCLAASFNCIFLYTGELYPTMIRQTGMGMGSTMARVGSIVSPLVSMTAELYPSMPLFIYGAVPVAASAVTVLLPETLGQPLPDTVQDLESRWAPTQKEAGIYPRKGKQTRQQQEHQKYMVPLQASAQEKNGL", "parameters": "method as in Kang et al. (2021)", "details": "ref Kang et al. (2021); cited from earlier work"}, "human OATP1B1": {"molecular_target": "T2, human OATP1B1 (Homo sapiens, UniProt Q9Y6L6)", "T2 sequence (Q9Y6L6 1-691)": "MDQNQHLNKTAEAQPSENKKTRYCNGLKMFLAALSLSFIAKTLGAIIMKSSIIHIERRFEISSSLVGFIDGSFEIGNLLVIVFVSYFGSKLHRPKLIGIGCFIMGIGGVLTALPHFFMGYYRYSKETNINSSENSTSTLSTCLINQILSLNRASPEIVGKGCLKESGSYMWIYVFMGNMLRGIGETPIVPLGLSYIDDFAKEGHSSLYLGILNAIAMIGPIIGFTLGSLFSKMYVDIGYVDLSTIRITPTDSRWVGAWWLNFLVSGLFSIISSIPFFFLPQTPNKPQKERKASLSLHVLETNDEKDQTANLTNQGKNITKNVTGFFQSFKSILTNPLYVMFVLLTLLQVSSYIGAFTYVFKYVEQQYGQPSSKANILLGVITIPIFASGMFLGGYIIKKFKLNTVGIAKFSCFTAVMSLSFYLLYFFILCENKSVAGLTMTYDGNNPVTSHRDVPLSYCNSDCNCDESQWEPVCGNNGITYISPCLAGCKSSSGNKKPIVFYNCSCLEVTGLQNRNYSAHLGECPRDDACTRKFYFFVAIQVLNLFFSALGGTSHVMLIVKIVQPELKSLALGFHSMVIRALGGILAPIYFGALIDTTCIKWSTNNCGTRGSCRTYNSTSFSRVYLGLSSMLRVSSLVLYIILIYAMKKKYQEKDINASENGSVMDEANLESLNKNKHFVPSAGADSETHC", "parameters": "method as in Cao et al. (2019)", "details": "ref Cao et al. (2019); cited from earlier work"}}}
{"molecule": "O=C(/C=C/c1ccc(O)c(O)c1)O[C@H](Cc1ccc(O)c(O)c1)C(=O)O", "note": "[Rosmarinic acid, rosmarinic acid]", "values": [{"measurement": "substrate of human OAT1", "setting": "human OAT1", "result": "substrate"}]}
{"molecule": "salvianolic acid B", "values": [{"measurement": "substrate of human OATP1B1", "setting": "human OATP1B1", "result": "substrate"}]}
